{"source": "paper PMC10455244", "about": "“Alpha-Mangostin: A Potent Inhibitor of TRPV3 and Pro-Inflammatory Cytokine Secretion in Keratinocytes” (International Journal of Molecular Sciences, 2023)", "test_system": "human keratinocytes", "assay_type": "cell-based", "conditions": "0.3 µM with 500 µM carvacrol, 24 h", "description": "Figure 5 Alpha-mangostin (α-MG) inhibited carvacrol-induced cytokine release in NHEK cells and rescued carvacrol-induced cell death. (A) Alpha-mangostin inhibited the carvacrol-induced release of IL-8 and IL-6 in NHEK. Cells were induced by 300 µM carvacrol with or without either 1 µM alpha-mangostin or 10 µM 74a for 24 h before the ELISA assay. (B) Alpha-mangostin reduced cell death caused by carvacrol in human keratinocytes. Cells were induced by 500 µM carvacrol with or without either 0.3 µM alpha-mangostin or 10 µM 74a for 24 h. The optical density (O.D.) values were normalized to those of the untreated cells. Data are shown as means ± SEM. **** p < 0.0001.\nStrong activation of TRPV3 in keratinocytes by carvacrol at concentrations higher than 300 µM was reported to cause cell death. Therefore, we examined the effect of alpha-mangostin in keratinocytes exposed to 500 µM carvacrol.\nThe cell counting kit-8 (CCK8; Dojindo Laboratories, Kumamoto, Japan) was employed for viability assay. Keratinocytes (10^4 cells/well) plated in 96-well plates were incubated for about one day before exposing them to alpha-mangostin for 24 h. […] The optical density (O.D., 450 nm) of each well was measured after incubating the cells with CCK-8 solution ([…]) for 2 h. […]"}
{"smiles": "COc1c(O)cc2oc3cc(O)c(CC=C(C)C)c(O)c3c(=O)c2c1CC=C(C)C", "note": "[Alpha-mangostin]", "values": [{"measurement": "Effect on carvacrol-induced decrease of cell viability", "result": "significantly reversed"}]}
